Data published in ChEMBL document CHEMBL1955836, “Isolation and identification of antibacterial neo-compounds from the red ants of ChangBai Mountain, Tetramorium sp” (2012).
In brackets after ≈: the same amount, converted by molar mass. Activity calls are given as the source filed them. No cut-off for these calls is given here.

How the values were obtained:
Bacillus subtilis [1] = test: Antibacterial activity against Bacillus subtilis ATCC 6633 assessed as inhibition zone at 25 ug/mL by Kirby Bauer paper diffusion method; assay type: functional; details: read-out: DIZ
Bacillus subtilis [2] = test: Antibacterial activity against Bacillus subtilis ATCC 6633 by Kirby Bauer paper diffusion method; assay type: functional
Escherichia coli = test: Antibacterial activity against Escherichia coli O157:H7 by Kirby Bauer paper diffusion method; assay type: functional, organism-based
Bacillus subtilis [3] = test: Antibacterial activity against Bacillus subtilis ATCC 6633 assessed as inhibition zone at 15 ug/mL by Kirby Bauer paper diffusion method; assay type: functional; details: read-out: DIZ
Bacillus subtilis [4] = test: Antibacterial activity against Bacillus subtilis ATCC 6633 assessed as inhibition zone at 10 ug/mL by Kirby Bauer paper diffusion method; assay type: functional; details: read-out: DIZ

Compound | zone of inhibition at 25 µg/mL (Bacillus subtilis [1]) [mm] | MIC (Bacillus subtilis [2]) [µg/mL] | Activity (Escherichia coli) | zone of inhibition at 15 µg/mL (Bacillus subtilis [3]) [mm] | zone of inhibition at 10 µg/mL (Bacillus subtilis [4]) [mm]
Cc1c2oc(=O)ccc2cc2c(O)c(C(C)(C)O)oc12 | 4 | 25 (≈ 91.2 µM) | inactive | – | –
O=C(Nc1ccccc1)c1cc(O)c(O)c(O)c1 | 0 | 25 (≈ 102 µM) | inactive | – | –
O=C1C[C@]2(C=Cc3c(c4ccccc4oc3=O)O2)CN1 | 5 | 25 (≈ 92.8 µM) | inactive | – | –
C#Cc1ccc(-c2c(C=O)c3ccccc3oc2=O)cc1 | 5 | 25 (≈ 91.1 µM) | inactive | – | –
O=C(NCCO)c1ccccc1 | – | 15 (≈ 90.8 µM) | inactive | 7 | –
CC1(C)S[C@@H]2[C@H](NC(=O)Cc3ccccc3)C(=O)N2[C@H]1C(=O)[O-].[K+] [PENICILLIN G POTASSIUM] | – | 10 | – | 20 | 16
